This is an account of results in patent US20250002514A1, “AMORPHOUS FORM OF BISMUTH-1,2-ETHANEDITHIOL AND METHODS OF MAKING” (Microbion Corporation, priority 2021, published 2025).

A short description of data set [1]: BisEDT single-dose rat PK studies comparing inhalation, IV and oral dosing. In kind it is in vivo. The method, then: Based on existing in vivo and in vitro toxicology data as well as rat PK and in vitro MIC data, BisEDT suspension for inhalation can be reliably administered at doses providing efficacious lung levels that are tolerated, and it is therefore a viable clinical development candidate. […] 24 hours after single inhalation dose 4,093 ng/g was measured in the lung tissue (which equates to 123 μg/mL in lung fluid) and 4 days (96 hrs) after single dose 2,600 ng/g in lung tissue (which equates to 78 μg/mL in lung fluid). Without being bound by any particular theory, it is believed BisEDT's low solubility provides slow dissolution and long exposure on lung surface fluids with limited systemic exposure via diffusion through lung epithelium. The lung appears to act as a depot for slow systemic exposure with about 10× lower systemic levels than seen in the lung. The terminal phase of the IV data appears to show slow elimination after initial tissue distribution (FIG. 10).

The nature of data set [2]: Nose-only inhalation exposure in F344 rats: whole blood and lung BisEDT concentration (ICP-MS bismuth as surrogate). The following applies: rat; for concentration at 8 h: nominal time 8 hr; for concentration at 12 h: nominal time 12 hr; for concentration at 24 h: nominal time 24 hr; for concentration at 30 h: nominal time 30 hr. In kind it is in vivo. The method, then:
Inhalation Exposure: The initial exposure of BisEDT (Bismuth-1,2-ethanedithiol) was formulated as a solution at 100 mg/mL in suspension in 0.5% Tween 80, 10 mM sodium phosphate, pH 7.4, in NaCl (adjusted to approximately 300 mOsm). Aerosols were generated with a commercial compressed air jet nebulizer, Pad LC Plus, operated with an inlet pressure of 20 psi. The aerosols were transitioned into a rodent nose-only inhalation exposure system. The exposure system was operated with an inlet air flow of […] and an exhaust air flow of −5 L/min.
Detailed gross necropsies were performed on all animals (found dead, moribund, or scheduled necropsy) and consisted of a complete external and internal examination including body orifices and cranial, thoracic, and abdominal organs and tissues. All gross findings will be recorded in descriptive terms. […] Lungs collected and weighed.
Tables 6 and 7 below show whole blood BisEDT versus time data and lung BisEDT concentration at sacrifice time data respectively.

The subject of data set [3] is Pseudomonas aeruginosa strain PA01. The data set can be described thus: Bacterial killing curves with and without 10% cystic fibrosis patient sputum. The class given is cell-based. The method, then:
Bacterial killing curves with BisEDT and BisBDT were performed in the presence of […] cystic fibrosis patient sputum in order to determine whether the test compounds are potentially inactivated by sputum. The assay is described in King P, Lomovskaya O, Griffith D C, Burns J L, Dudley M N. In vitro pharmacodynamics of levofloxacin and other aerosolized antibiotics under multiple conditions relevant to chronic pulmonary infection in cystic fibrosis. Antimicrob Agents Chemother, 54:143-8, 2010.
Sputum was collected from cystic fibrosis (CF) patient volunteers without recent antibiotic exposure after appropriate IRB approval. Sputum was sterilized by UV irradiation and sterilization was confirmed by culture. An overnight culture of Pseudomonas aeruginosa strain PA01 was used to inoculate fresh cultures in cation-adjusted Mueller-Hinton broth or cation-adjusted Mueller-Hinton broth plus 10% CF patient sputum. Drugs were added to individual culture tubes with and without sputum at the following final concentrations: • BisEDT: 0.1 μg/mL, 2 μg/mL, and 20 μg/mL • BisBDT: 0.1 μg/mL. 4 μg/mL, and 20 μg/mL
Tobramycin at 1 μg/mL was used as a comparator drug control known to be partially inactivated by patient sputum. Cultures were incubated with shaking at 37° C. and aliquots were removed every hour for quantitation of colony forming units per mL (CFU/mL) by serial dilution and plating on tryptic soy agar for a total of 6 hours. CFU were counted after incubation of the plates overnight at 37° C.

[4] abbreviates: both sexes, F344, whole blood, inhaled, single inhalation dose 47 μg/kg, read-out: Whole blood Mean BisEDT Conc.
Setting [5] is: both sexes, F344, whole blood, inhaled, single inhalation dose 124 μg/kg, read-out: Whole blood Mean BisEDT Conc.
Setting [6] is: both sexes, F344, whole blood, inhaled, single inhalation dose 400 μg/kg, read-out: Whole blood Mean BisEDT Conc.
Setting [7] is: both sexes, F344, whole blood, inhaled, single inhalation dose 3000 μg/kg, read-out: Whole blood Mean BisEDT Conc.

Read-outs that look alike come from different tables or passages of the source.

Regarding `C1C[S][Bi]([S]CC[S][Bi]2[S]CC[S]2)[S]1` [BisEDT, Bismuth-1,2-ethanedithiol], the Tolerability entry in data set [1] (100 μg/kg inhalation and IV and 250 μg/kg oral, single dose) is “tolerated”. In addition, the “Systemic levels lower than seen in the lung (fold)” value in data set [1] (after inhalation dosing) is “about 10 ×”. Besides, in data set [1] (single 100 μg/kg IV dose), the “Duration of initial distribution into tissues after IV dosing (biphasic pattern)” value was determined as 18 h, the “Half-life of lung levels after IV dosing” value is listed as “about 24 hour” and the “Lung levels after IV dosing vs inhalation group” value was below 5%. The “Blood exposure after inhalation dosing” value in data set [1] (single 100 μg/kg inhalation dose) is “sustained, moderate, blood exposure with relatively stable concentrations across time”. In data set [1] (single 250 μg/kg oral dose), the “Blood concentrations after oral dosing” value is “very low, but sustained and measurable”; the “Lung levels after oral dosing” value is “no lung levels”. Besides, in data set [1] (single inhalation dose (100 μg/kg lung deposited)), the “Half-life in lung tissue after inhalation dosing” value is given as “about 4 days”. Further, in data set [2] (setting [4]), the concentration at 8 h amounted to 114 ng/mL, the concentration at 12 h worked out at 98 ng/mL, the concentration at 24 h is 282 ng/mL and the concentration at 30 h was determined as 373 ng/mL. For the same compound, in data set [2] (setting [5]), the concentration at 8 h came to 247 ng/mL, the concentration at 12 h was 187 ng/mL, the concentration at 24 h was 571 ng/mL and the concentration at 30 h amounted to 668 ng/mL. In data set [2] (setting [6]), the concentration at 8 h was found to be 1700 ng/mL, the concentration at 12 h stood at 1250 ng/mL, the concentration at 24 h came to 2700 ng/mL and the concentration at 30 h amounted to 2740 ng/mL. Also, in data set [2] (both sexes, F344, whole blood, inhaled, single inhalation dose 3000 μg/kg, nominal time 1 hr, read-out: Whole blood Mean BisEDT Conc), the concentration at 1 h was determined as 485 ng/mL. Also, the concentration at 2 h in data set [2] (both sexes, F344, whole blood, inhaled, single inhalation dose 3000 μg/kg, nominal time 2 hr, read-out: Whole blood Mean BisEDT Conc) worked out at 2500 ng/mL. In addition, in data set [2] (setting [7]), the concentration at 8 h is 6570 ng/mL and the concentration at 24 h stood at 20500 ng/mL. Also, the “Lung Mean BisEDT Conc at sacrifice” value in data set [2] (single inhalation dose 47 μg/kg, sac time 30 hr) was determined as 4.8 ng/g. Moreover, the “Lung Mean BisEDT Conc at sacrifice” value in data set [2] (single inhalation dose 124 μg/kg, sac time 30 hr) is listed as 5.9 ng/g. Moreover, the “Lung Mean BisEDT Conc at sacrifice” value in data set [2] (single inhalation dose 400 μg/kg, sac time 30 hr) came to 12.1 ng/g. In data set [2] (single inhalation dose 3000 μg/kg, sac time 24 hr), the “Lung Mean BisEDT Conc at sacrifice” value is on record as 82.3 ng/g. In data set [3] (0.1 μg/mL, 6 hour assay), the “Bactericidal activity against PA01 at 0.1 μg/mL” value was “not bactericidal”. The “Effect of CF patient sputum on bactericidal activity” value in data set [3] (10% CF patient sputum in cation-adjusted Mueller-Hinton broth) was “partially inhibited”. Further, the “Bactericidal activity against Pseudomonas aeruginosa strain PA01 in this assay” value in data set [3] (overall conclusion of killing curves) is “bactericidal”.

`NC[C@H]1O[C@H](O[C@H]2[C@H](O)[C@@H](O[C@H]3O[C@H](CO)[C@@H](O)[C@H](N)[C@H]3O)[C@H](N)C[C@@H]2N)[C@H](N)C[C@@H]1O` [tobramycin, reference compound]: in data set [3] (tobramycin 1 μg/mL, 10% CF patient sputum, most time points), the “CFU higher in cultures with sputum compared to cultures without sputum” value is 0.5-1 log CFU/mL.
